Reference: publication PMC9224751 (International Journal of Molecular Sciences, 2022)
Where two headings read alike, the source gives them in different places.

Assays:
Caco-2 cells = assay: WST-1 cell viability assay; conditions: uninfected Caco-2, three days
SARS-CoV-2 Gamma = assay: VoC replication in Calu-3 cells, qRT-PCR; format: cell-based; conditions: Severe acute respiratory syndrome coronavirus 2
[1] = tested on: SARS-CoV-2 Wuhan type (SARS-CoV-2PR-1); assay: SARS-CoV-2 replication in Vero B4 cells, virions in supernatant by qRT-PCR; format: cell-based; conditions: for IC50: MOI 2 × 10^−2
[2] = tested on: SARS-CoV-2 Omicron (SARS-CoV-2OM); assay: VoC replication in Calu-3 cells, qRT-PCR; format: cell-based
SARS-CoV-2 Alpha = assay: VoC replication in Calu-3 cells, qRT-PCR; format: cell-based; conditions: Severe acute respiratory syndrome coronavirus 2
[3] = tested on: SARS-CoV-2 Wuhan type (SARS-CoV-2PR-1); assay: SARS-CoV-2 replication in Caco-2 cells, qRT-PCR; format: cell-based; conditions: Severe acute respiratory syndrome coronavirus 2, 3 dpi
SARS-CoV-2 Delta = assay: VoC replication in Calu-3 cells, qRT-PCR; format: cell-based; conditions: for IC50 / IC90: Severe acute respiratory syndrome coronavirus 2, […]
Calu-3 cells = assay: WST-1 cell viability assay; format: cell-based, human; conditions: uninfected Calu-3, three days
Experimental: (§1) To control for potential unspecific effects of PAM treatment on cell viability, water-soluble tetrazolium salt (WST)-1 assays were performed in uninfected Vero B4, A549-ACE2/TMPRSS2+, Caco-2, or Calu-3 cells under otherwise identical conditions as the virus infection experiments. […] Staurosporine (StS) was used as a positive control at a concentration of 1 µM. DMSO as a solvent control was added in the same amount as the respective highest concentration of PAM.
(§2) Following treatment with different concentrations of PAM (PAM concentrations are indicated at the x-axis) for three days, the influence on cell viability was measured by water-soluble tetrazolium salt (WST)-1 assay. […] Staurosprine (StS, 1 µM) was used as a positive control. DMSO as solvent control was added in the same amount as in the highest concentration of PAM (100 µM (A,B); 1000 µM (C,D)).
(§3) Viability of uninfected and treated cells was assessed by the water-soluble tetrazolium salt (WST)-1 assay (Roche, Basel, Switzerland) according to the manufacturer’s instructions. Cells were treated for 72 h with various inhibitors according to the protocols of the infection experiments.

[4] = tested on: SARS-CoV-2 Wuhan type (SARS-CoV-2PR-1); assay: Quantitative immunofluorescence of SARS-CoV-2 nucleoprotein (NP) in infected Calu-3 cells; format: cell-based; conditions: 30 h treatment, increasing concentrations
Experimental: In addition, and to confirm the results obtained from the qRT-PCR analysis of the cell culture supernatants, Calu-3 cells were infected with the wildtype isolate SARS-CoV-2PR-1 at the same MOI (Figure 1) and subsequently treated with different concentrations of PAM for 30 h. Cells were fixed and further stained with a SARS-CoV-2 nucleoprotein (NP)-specific antibody. RDV was used as a positive control at 1 µM (Figure S1, see Supplementary Materials).
For immunostaining, infected Calu-3 cells were fixed with 4% PFA for 15 min. Following a washing step with PBS, cells were blocked and permeabilized overnight with 1% BSA in PBS (+0.2% Triton) and afterwards stained with a polyclonal rabbit anti-NP antibody (GeneTex, Cat. No. GTX135357, Irvine, CA, USA) for 24 h. […] For analysis, immunostaining was quantitative analyzed with a PerkinElmer VictorX4 reader (488 nm) (PerkinElmer, Waltham, MA, USA) and pictures were taken using a CTL-ELISPOT reader (Cellular Technology Ltd., Shaker Heights, OH, USA).
Figure S1. […] Quantitative immunofluorescent microscopy was performed to detect the viral nucleocapsid protein in Calu-3 cells 30 hrs post-infection with SARS-CoV-2 Wuhan type using an Alexa488-conjugated anti-SARS-CoV-2 nucleo-protein (NP)-antibody or DAPI as a control. […]

[5] = tested on: SARS-CoV-2 Wuhan type (SARS-CoV-2PR-1); assay: SARS-CoV-2 replication in A549-ACE2+/TMPRSS2+ cells, qRT-PCR; format: cell-based; conditions: Severe acute respiratory syndrome coronavirus 2, 3 dpi
SARS-CoV-2 Wuhan type = assay: SARS-CoV-2 replication, summary over Vero B4, A549-ACE2+/TMPRSS2+, Caco-2 and Calu-3 cells, qRT-PCR; format: cell-based; conditions: for IC90: Severe acute respiratory syndrome coronavirus 2, Wuhan type, Vero B4, A549-ACE2+/TMPRSS2+, Caco-2, Calu-3, read-out: IC90 values, range among all investigated cell lines
SARS-CoV-2 Beta = assay: VoC replication in Calu-3 cells, qRT-PCR; format: cell-based; conditions: Severe acute respiratory syndrome coronavirus 2
[6] = tested on: SARS-CoV-2 VoCs Alpha, Beta, Gamma, Delta, and Omicron; assay: VoC replication in Calu-3 cells, summary over all VoCs, qRT-PCR; format: cell-based; conditions: for IC90: Severe acute respiratory syndrome coronavirus 2, read-out: IC90, range over VoCs
[7] = tested on: SARS-CoV-2 Wuhan type (SARS-CoV-2PR-1); assay: SARS-CoV-2 replication in Calu-3 cells, qRT-PCR; format: cell-based; conditions: for IC50 / IC90: Severe acute respiratory syndrome coronavirus 2, Calu-3, Wuhan type, 3 dpi
[8] = tested on: SARS-CoV-2 Wuhan Type, Delta, or Omicron; assay: Combination treatment in Calu-3 cells, summary over the three viruses, qRT-PCR; format: cell-based; conditions: single treatment
[9] = tested on: uninfected Vero B4, A549-ACE2/TMPRSS2+, Caco-2, or Calu-3 cells; assay: WST-1 cell viability assay, all cell types; format: cell-based; conditions: three days
Experimental: as §1, §2, §3

[10] = set-up: method as in PMID 34580086; conditions: use of Pio, after a COVID-19 diagnosis, cited from earlier work
SARS-CoV-2 [11] = conditions: Vero E6 cells; published; cited from earlier work
SARS-CoV-2 [12] = conditions: Calu-3; published; cited from earlier work
[13] = Severe acute respiratory syndrome coronavirus 2, Vero B4, Wuhan type, 3 dpi
[14] = Severe acute respiratory syndrome coronavirus 2, Calu-3, Calu-3, […]
[15] = Severe acute respiratory syndrome coronavirus 2, Calu-3

Row | Structure (SMILES) | TD50 (Caco-2 cells) | IC50 (SARS-CoV-2 Gamma) [nM] | IC90 (SARS-CoV-2 Gamma) [nM] | IC50 [1, 13] [nM] | IC50 [2, 14] [nM] | IC90 [2, 14] [nM] | IC50 (SARS-CoV-2 Alpha) [nM] | IC90 (SARS-CoV-2 Alpha) [nM] | IC50 [3] [nM] | IC50 (SARS-CoV-2 Delta) [nM] | IC90 (SARS-CoV-2 Delta) [nM] | TD50 (Calu-3 cells) | IC50 [5] [nM] | IC90 (SARS-CoV-2 Wuhan type) [nM] | IC50 (SARS-CoV-2 Beta) [nM] | IC90 (SARS-CoV-2 Beta) [nM] | IC90 [6] [nM] | inhibition at 0.05 µM [7, 15] [%] | IC50 [7] [nM] | IC90 [7] [nM] | other results
1 | Cn1c(=O)c(Oc2ccc(F)cc2F)cc2cnc(NC(CCO)CCO)nc21 [PAM, Pamapimod] | ~ 1000 µM | ~250 | ~3000 | ~200 | ~250 | ~2000 | ~250 | ~3000 | ~250 | ~250 | ~4000 | ~ 1000 µM | ~200 | 2000 to 3000 | ~250 | ~3000 | 3000 to 4000 | 33.9 | ~100 | ~3000 | IC90 ([1]; Severe acute respiratory syndrome coronavirus 2, Vero B4, Wuhan type, 3 dpi, read-out: IC90): ~2000 nM; IC90 ([2]; Calu-3, […]): ~3000 nM; inhibition at 0.01 µM ([2]; Severe acute respiratory syndrome coronavirus 2, PAM 0.01 µM, Pio 0 µM, Calu-3, Fig 7F): 3.6%; inhibition at 0.05 µM ([2]; Severe acute respiratory syndrome coronavirus 2, PAM 0.05 µM, Pio 0 µM, Calu-3, Fig 7F): 28.6%; IC90 [3]: ~3000 nM; inhibition at 0.01 µM (SARS-CoV-2 Delta; Severe acute respiratory syndrome coronavirus 2, PAM 0.01 µM, Pio 0 µM, Fig 7D): 2.86%; inhibition at 0.05 µM (SARS-CoV-2 Delta; Severe acute respiratory syndrome coronavirus 2, PAM 0.05 µM, Pio 0 µM, Fig 7D): 27.6%; SARS-CoV-2 replication within infected cells (NP staining normalized to DAPI) [4]: effectively suppressed SARS-CoV-2 replication in a dose-dependent manner; IC90 [5]: ~2000 nM; production of progeny virions (SARS-CoV-2 Wuhan type; at a concentration of 6.25 µM, all infected cell lines): almost completely blocked; IC50 ([6]; Severe acute respiratory syndrome coronavirus 2): ~250 nM; inhibition at 0.01 µM [7, 15]: 10.5%; reduction of virus replication, max. ([8]; 50 nM PAM, Figure 7B): ≤ 33%; impact on cell viability ([9]; concentrations up to 100 µg/mL): no impact on cell viability
2 | CCc1ccc(CCOc2ccc(CC3SC(=O)NC3=O)cc2)nc1 (centres unmarked) [Pio, Pioglitazone] | 500 to 1000 µM | ~700 | ~15000 | ~500 | ~900 | ~10000 | ~800 | ~15000 | ~700 | ~500 | ~12000 | 500 to 1000 µM | ~1000 | 8000 to 10000 | ~900 | ~15000 | 12000 to 15000 | 15.9 | ~800 | ~10000 | IC90 ([1]; Severe acute respiratory syndrome coronavirus 2, Vero): ~8000 nM; IC50 ([2]; Calu-3, […]): ~700 nM; inhibition at 0.02 µM ([2]; Severe acute respiratory syndrome coronavirus 2, PAM 0 µM, Pio 0.02 µM, Calu-3, Fig 7F): 1.44%; inhibition at 0.05 µM ([2]; Severe acute respiratory syndrome coronavirus 2, PAM 0 µM, Pio 0.05 µM, Calu-3, Fig 7F): 12.2%; inhibition at 0.1 µM ([2]; Severe acute respiratory syndrome coronavirus 2, PAM 0 µM, Pio 0.1 µM, Calu-3, Fig 7F): 27.1%; inhibition at 0.3 µM ([2]; Severe acute respiratory syndrome coronavirus 2, PAM 0 µM, Pio 0.3 µM, Calu-3, Fig 7F): 44%; inhibition at 0.02 µM (SARS-CoV-2 Delta; Severe acute respiratory syndrome coronavirus 2, PAM 0 µM, Pio 0.02 µM, Fig 7D): 0.48%; inhibition at 0.05 µM (SARS-CoV-2 Delta; Severe acute respiratory syndrome coronavirus 2, PAM 0 µM, Pio 0.05 µM, Fig 7D): 12.2%; inhibition at 0.1 µM (SARS-CoV-2 Delta; Severe acute respiratory syndrome coronavirus 2, PAM 0 µM, Pio 0.1 µM, Fig 7D): 32.4%; inhibition at 0.3 µM (SARS-CoV-2 Delta; Severe acute respiratory syndrome coronavirus 2, PAM 0 µM, Pio 0.3 µM, Fig 7D): 46.9%; hospital admissions ([10]; vs. 28.2% comparator): 20.0%; RR of hospital admissions [10]: 0.71; SARS-CoV-2 replication (SARS-CoV-2 Wuhan type; at ~80 µM, all test settings): completely suppresses; inhibition at 0.02 µM [7, 15]: 4.64%; inhibition at 0.1 µM [7, 15]: 36.9%; inhibition at 0.3 µM [7, 15]: 48.3%; reduction of viral replication, max. ([8]; 300 nM Pio, Figure 7D): ≤ 48%; impact on cell viability ([9]; concentrations up to ~80 µM): no impact on cell viability
3 | CCC(CC)COC(=O)[C@H](C)N[P@](=O)(OC[C@H]1O[C@@](C#N)(c2ccc3c(N)ncnn23)[C@H](O)[C@@H]1O)Oc1ccccc1 [Remdesivir] |  |  |  |  |  |  |  |  |  |  |  |  |  |  |  |  |  |  |  |  | IC90 (SARS-CoV-2 [11]): 3000 nM; IC90 (SARS-CoV-2 [12]): 1280 nM
